Experiments:
Assay in all cases: Bliss excess, mean over the matrix (fraction); higher = more synergy
[1] = system: TOV-21G (Ovarian Carcinoma)
Method in brief: (§1)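 After 24 hours at 37°C and 5% CO2 in 1536-well plates, cells in DMEM/F12 or RPMI plus 10% FBS received two-drug dose matrices for 72 hours. Viability came from CellTiter-Glo 2.0 luminescence and was scaled as inhibition, anchored at 0 by vehicle wells and at 1 by blank wells. Combination Emax is taken as the second-highest inhibition in the matrix, and Bliss excess as the observed combination effect less EA + EB − EA·EB, with EA and EB the single-agent effects.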

[2] = system: NCI-H1944 (Lung Adenocarcinoma)
Method in brief: as §1

[3] = system: BT-474 (Breast Carcinoma)
Method in brief: as §1

DK-MG (Glioblastoma) = system: DK-MG (Glioblastoma)
Method in brief: as §1

MG-63 (Osteosarcoma) = system: MG-63 (Osteosarcoma)
Method in brief: as §1

[4] = system: KNS-62 (Squamous Cell Lung Carcinoma)
Method in brief: as §1

[5] = system: NCI-H1975 (Lung Adenocarcinoma)
Method in brief: as §1

[6] = system: SBC-3 (Small Cell Lung Carcinoma)
Method in brief: as §1

[7] = system: MDA-MB-175-VII (Breast Carcinoma)
Method in brief: as §1

[8] = system: Daudi (Burkitt's Lymphoma)
Method in brief: as §1

[9] = system: NCI-H2170 (Squamous Cell Lung Carcinoma)
Method in brief: as §1

[10] = system: OCI-M1 (Acute Myeloid Leukemia)
Method in brief: as §1

[11] = system: CAL-85-1 (Breast Carcinoma)
Method in brief: as §1

[12] = system: NCI-H1048 (Small Cell Lung Carcinoma)
Method in brief: as §1

[13] = system: TK (B-Cell Non-Hodgkin's Lymphoma)
Method in brief: as §1

[14] = system: COR-L105 (Lung Adenocarcinoma)
Method in brief: as §1

GCIY (Gastric Carcinoma) = system: GCIY (Gastric Carcinoma)
Method in brief: as §1

[15] = system: NCI-H1435 (Non-Small Cell Lung Carcinoma)
Method in brief: as §1

SK-MEL-24 (Melanoma) = system: SK-MEL-24 (Melanoma)
Method in brief: as §1

SMILES | Bliss excess [1] | Bliss excess [2] | Bliss excess [3] | Bliss excess (DK-MG (Glioblastoma)) | Bliss excess (MG-63 (Osteosarcoma)) | Bliss excess [4] | Bliss excess [5] | Bliss excess [6] | Bliss excess [7] | Bliss excess [8] | Bliss excess [9] | Bliss excess [10] | Bliss excess [11] | Bliss excess [12] | Bliss excess [13] | Bliss excess [14] | Bliss excess (GCIY (Gastric Carcinoma)) | Bliss excess [15] | Bliss excess (SK-MEL-24 (Melanoma))
Cc1c2c(nn1C)CSCc1cc(n(C)n1)CSc1cc(c3ccccc3c1)OCCCc1c(C(=O)O)n(C)c3c-2c(Cl)ccc13 [AZD5991] + CCN(CCO)CCCOc1ccc2c(Nc3cc(CC(=O)Nc4cccc(F)c4)[nH]n3)ncnc2c1 [AZD2811] (first compound max 1 µM, 7x7, partner max 1 µM) | 0.0576 | 0.0457 | 0.0314 | -0.0543 | 0.0186 | 0.0156 | 0.0047 | 0.0082 | 0.0441 | 0.263 | 0.0348 | 0.068 | -0.0011 | 0.0766 | 0.0228 | -0.0986 | -0.0183 | 0.0411 | 0.0258
Cc1c2c(nn1C)CSCc1cc(n(C)n1)CSc1cc(c3ccccc3c1)OCCCc1c(C(=O)O)n(C)c3c-2c(Cl)ccc13 [AZD5991] + C[C@@H](Nc1cc(F)cc(F)c1)c1cc(C(=O)N(C)C)cc2c(=O)cc(N3CCOCC3)oc12 [AZD8186] (first compound max 1 µM, 7x7, partner max 3 µM) | -0.0139 | -0.0141 | -0.0099 | 0.0095 | -0.0213 | -0.0449 | -0.0203 | -0.0341 | -0.0006 | 0.0234 | 0.0095 | -0.0343 | -0.0067 | 0.0019 | -0.0143 | -0.0864 | -0.0611 | 0.0131 | -0.0081
C=CCn1c(=O)c2cnc(Nc3ccc(N4CCN(C)CC4)cc3)nc2n1-c1cccc(C(C)(C)O)n1 [AZD1775] + C[C@@H]1COCCN1C2=NC(=NC(=C2)C3(CC3)[S@](=N)(=O)C)C4=C5C=CNC5=NC=C4 [AZD6738] (first compound max 1 µM, partner max 10 µM) | -0.0523 | 0.0456 | -0.0425 | -0.0342 | 0.0271 | 0.0257 | 0.0451 | 0.0197 | -0.0184 | 0.0329 | -0.0253 | 0.0327 | -0.0511 | 0.0582 | 0.0031 | -0.0411 | 0.0091 | 0.0291 | -0.0189
CC1(C)CCC(CN2CCN(c3ccc(C(=O)NS(=O)(=O)c4ccc(NCC5CCOCC5)c([N+](=O)[O-])c4)c(Oc4cnc5[nH]ccc5c4)c3)CC2)=C(c2ccc(Cl)cc2)C1 [Venetoclax] + C[C@@H]1COCCN1C2=NC(=NC(=C2)C3(CC3)[S@](=N)(=O)C)C4=C5C=CNC5=NC=C4 [AZD6738] (first compound max 1 µM, 7x7, partner max 10 µM) | -0.0256 | -0.0023 | -0.0265 | -0.0914 | -0.0758 | -0.121 | -0.0391 | -0.0906 | -0.0433 | -0.0278 | -0.0019 | -0.0106 | -0.0195 | 0.0276 | 0.0223 | -0.0429 | -0.0468 | -0.014 | -0.0429
CCN(CCO)CCCOc1ccc2c(Nc3cc(CC(=O)Nc4cccc(F)c4)[nH]n3)ncnc2c1 [AZD2811] + O=C(c1cc(Cc2n[nH]c(=O)c3ccccc23)ccc1F)N1CCN(C(=O)C2CC2)CC1 [Olaparib] (first compound max 1 µM, 7x7, partner max 10 µM) | 0.0352 | 0.0069 | -0.0079 | 0.0024 | 0.0197 | -0.0171 | 0.0034 | 0.0475 | -0.0012 | 0.104 | 0.0044 | 0.0337 | -0.0246 | -0.0161 | 0.0322 | -0.0311 | -0.0066 | 0.0111 | -0.0339
Cc1c2c(nn1C)CSCc1cc(n(C)n1)CSc1cc(c3ccccc3c1)OCCCc1c(C(=O)O)n(C)c3c-2c(Cl)ccc13 [AZD5991] + Cc1cc2ncnn2cc1Nc1ncc2c(n1)n(C1CCOCC1)c(=O)n2C [AZD7648] (first compound max 1 µM, 7x7, partner max 10 µM) | -0.0461 | -0.039 | -0.0305 | -0.101 | -0.0265 | 0.0266 | -0.104 | -0.0801 | -0.0055 | 0.0041 | -0.0144 | -0.001 | -0.055 | -0.0227 | -0.0046 | -0.0645 | -0.0242 | -0.0055 | -0.0134
CC1(C)CCC(CN2CCN(c3ccc(C(=O)NS(=O)(=O)c4ccc(NCC5CCOCC5)c([N+](=O)[O-])c4)c(Oc4cnc5[nH]ccc5c4)c3)CC2)=C(c2ccc(Cl)cc2)C1 [Venetoclax] + C[C@@H](Nc1cc(F)cc(F)c1)c1cc(C(=O)N(C)C)cc2c(=O)cc(N3CCOCC3)oc12 [AZD8186] (first compound max 1 µM, 7x7, partner max 3 µM) | -0.0271 | -0.034 | -0.055 | -0.0425 | -0.0636 | -0.0545 | -0.0203 | -0.034 | -0.0321 | -0.0238 | -0.0739 | -0.0158 | -0.055 | 0.018 | -0.0454 | -0.0359 | -0.0047 | 0.0012 | -0.0585
CC1(C)CCC(CN2CCN(c3ccc(C(=O)NS(=O)(=O)c4ccc(NCC5CCOCC5)c([N+](=O)[O-])c4)c(Oc4cnc5[nH]ccc5c4)c3)CC2)=C(c2ccc(Cl)cc2)C1 [Venetoclax] + C=CCn1c(=O)c2cnc(Nc3ccc(N4CCN(C)CC4)cc3)nc2n1-c1cccc(C(C)(C)O)n1 [AZD1775] (first compound max 1 µM, partner max 1 µM) | -0.0261 | -0.0808 | -0.0668 | -0.0003 | -0.0048 | -0.0106 | -0.0143 | 0.043 | -0.0111 | -0.0267 | -0.0548 | -0.0505 | -0.0334 | 0.0212 | 0.0168 | -0.0095 | 0.111 | -0.0029 | -0.0473
CC1(C)CCC(CN2CCN(c3ccc(C(=O)NS(=O)(=O)c4ccc(NCC5CCOCC5)c([N+](=O)[O-])c4)c(Oc4cnc5[nH]ccc5c4)c3)CC2)=C(c2ccc(Cl)cc2)C1 [Venetoclax] + CCN(CCO)CCCOc1ccc2c(Nc3cc(CC(=O)Nc4cccc(F)c4)[nH]n3)ncnc2c1 [AZD2811] (first compound max 1 µM, 7x7, partner max 1 µM) | 0.0149 | -0.0272 | -0.0035 | -0.0784 | -0.0699 | 0.0131 | -0.0555 | 0.0166 | -0.0228 | 0.005 | -0.0185 | 0.0061 | -0.032 | 0.103 | 0.0051 | -0.0608 | -0.0468 | 0.0104 | -0.053
CN(C)CCCOc1ccc(-c2ccc3ncc4c(c3c2)n(C2CCOCC2)c(=O)n4C)cn1 [AZD0156] + C=CCn1c(=O)c2cnc(Nc3ccc(N4CCN(C)CC4)cc3)nc2n1-c1cccc(C(C)(C)O)n1 [AZD1775] (first compound max 1 µM, partner max 1 µM) | 0.0044 | -0.0218 | -0.0647 | -0.0003 | -0.0428 | -0.0373 | 0.017 | -0.0451 | -0.0589 | -0.0243 | 0.0914 | 0.0077 | -0.0155 | -0.0815 | -0.0045 | -0.0414 | -0.0428 | -0.0201 | -0.0255
Cc1c2c(nn1C)CSCc1cc(n(C)n1)CSc1cc(c3ccccc3c1)OCCCc1c(C(=O)O)n(C)c3c-2c(Cl)ccc13 [AZD5991] + CC1(C)CCC(CN2CCN(c3ccc(C(=O)NS(=O)(=O)c4ccc(NCC5CCOCC5)c([N+](=O)[O-])c4)c(Oc4cnc5[nH]ccc5c4)c3)CC2)=C(c2ccc(Cl)cc2)C1 [Venetoclax] (first compound max 1 µM, 7x7, partner max 1 µM) | -0.0115 | 0.0091 | -0.0279 | -0.0696 | 0.0034 | -0.0426 | -0.0053 | 0.0727 | -0.0306 | 0.0382 | -0.0333 | -0.0076 | -0.0296 | 0.049 | 0.174 | -0.043 | 0.0076 | 0.0174 | -0.0426
CC1(C)CCC(CN2CCN(c3ccc(C(=O)NS(=O)(=O)c4ccc(NCC5CCOCC5)c([N+](=O)[O-])c4)c(Oc4cnc5[nH]ccc5c4)c3)CC2)=C(c2ccc(Cl)cc2)C1 [Venetoclax] + Cc1cc2ncnn2cc1Nc1ncc2c(n1)n(C1CCOCC1)c(=O)n2C [AZD7648] (first compound max 1 µM, 7x7, partner max 10 µM) | -0.002 | 0.0189 | -0.0622 | -0.0355 | -0.0405 | -0.0255 | -0.0114 | -0.0729 | -0.0444 | 0.004 | -0.0109 | -0.0153 | -0.0251 | 0.0067 | 0.0006 | -0.0512 | -0.0232 | -0.0088 | -0.0553

Source: the supplement of paper PMC11061612
